For one test, the system named is HIV-1 NL4-3 wt. Description: MT4 cell antiviral assay, NL4-3 wt. The format is cell-based. Particulars: Human immunodeficiency virus 1, NL43, 120 h; MT4 cells, 5 days, HIV-induced cytopathic effect.
For a further test, the system named is HIV-1 V370A. Description: MT4 cell antiviral assay, V370A. The format is cell-based. Particulars: Human immunodeficiency virus 1, MT4, 120 h, read-out: EC50 V370A.
The next test has as its system HIV-1 (strain IIIB). In words: MT4 cell antiviral assay (as described in the method). It is filed as cell-based. Conditions: Human immunodeficiency virus 1, IIIB, control and standard in every assay, propidium iodide readout, read-out: expected range of IC50 values. The procedure: Antiviral HIV activity and compound-induced cytotoxicity were measured in parallel by means of a propidium iodide based procedure in the human T-cell lymphotropic virus transformed cell line MT4. Aliquots of the test compounds were serially diluted in medium (RPMI 1640, 10% fetal calf serum (FCS), and gentamycin) in 96-well plates (Costar 3598) using a Cetus Pro/Pette. Exponentially growing MT4 cells were harvested and centrifuged at 1000 rpm for 10 min in a Jouan centrifuge (model CR 4 12). Cell pellets were resuspended in fresh medium (RPMI 1640, 20% FCS, 20% IL-2, and gentamycin) to a density of 5×10^5 cells/ml. […]
For propidium iodide readout, 27 μl of 5% Nonidet-40 was added to each well of the incubation plate. […] The plates were analyzed in an automated assay instrument (Screen Machine, Idexx Laboratories). […]
For MTS readout, 20 μl CellTiter 96 AQ One Solution reagent (Promega #G3582) was added to each well. At 75 minutes following the addition of MTS reagent, absobance was read at 492 nm using a Tecan Sunrise 96-well plate reader. […]
For each assay plate, the results (relative fluorescence units, rfU, or OD values) of wells containing uninfected cells or infected cells with no compound were averaged, respectively. […] Percent of cells remaining is determined by the following formula: […]

The test system of the next test is HIV. Conditions: cited from earlier work.

Structures are written as SMILES. Structures can show the parent of a compound that is named as a salt.

With `CC(C)C1=C2C3CCC4[C@@]5(C)CC=C(c6ccc(C(=O)O)cc6)C(C)(C)C5CC[C@@]4(C)[C@]3(C)CC[C@@]2(NC(=O)CN2CCS(=O)(=O)CC2)CC1=O` (stereo partly drawn) [Example 6, 4-((3aR,5aR,5bR,11aS)-3a-(2-(1,1-Dioxidothiomorpholino)acetamido)-1-isopropyl-5a,5b,8,8,11a-pentamethyl-2-oxo-3,3a,4,5,5a,5b,6,7,7a,8,11,11a,11b,12,13,13a-hexadecahydro-2H-cyclopenta[a]chrysen-9-yl)benzoic acid hydrochloride salt], in the test with HIV-1 NL4-3 wt, the EC50 (as a rule, the midpoint of the concentration-response curve) is 159 nM.
Take `CC(C)C1=C2[C@H]3CC[C@@H]4[C@@]5(C)CC=C(C6=CCC(C(=O)O)CC6)C(C)(C)[C@@H]5CC[C@@]4(C)[C@]3(C)CC[C@@]2(NCCN2CCS(=O)(=O)CC2)CC1=O` (stereo partly drawn) [Example 2, 4-((3aR,5aR,5bR,7aR,11aS,11bR,13aS)-3a-((2-(1,1-Dioxidothiomorpholino)ethyl)amino)-1-isopropyl-5a,5b,8,8,11a-pentamethyl-2-oxo-3,3a,4,5,5a,5b,6,7,7a,8,11,11a,11b,12,13,13a-hexadecahydro-2H-cyclopenta[a]chrysen-9-yl)cyclohex-3-enecarboxylic acid]: the EC50 with HIV-1 NL4-3 wt is 8 nM; in the test on HIV-1 V370A, 18 nM.
For the compound `CC(C)C1=C2[C@H]3CC[C@@H]4[C@@]5(C)CC=C(c6ccc(C(=O)O)cc6)C(C)(C)[C@@H]5CC[C@@]4(C)[C@]3(C)CC[C@@]2(NCCN2CCS(=O)(=O)CC2)CC1=O` [Example 5, 4-((3aR,5aR,5bR,11aS)-3a-((2-(1,1-Dioxidothiomorpholino)ethyl)amino)-1-isopropyl-5a,5b,8,8,11a-pentamethyl-2-oxo-3,3a,4,5,5a,5b,6,7,7a,8,11,11a,11b,12,13,13a-hexadecahydro-2H-cyclopenta[a]chrysen-9-yl)benzoic acid hydrochloride], the EC50 in the test with HIV-1 NL4-3 wt is 30 nM; in the test on HIV-1 V370A, 776 nM.
Turning to `Cc1cn([C@H]2C[C@H](N=[N+]=[N-])[C@@H](CO)O2)c(=O)[nH]c1=O` [3′-azido-3′-deoxythymidine], in the test with HIV-1 (strain IIIB), the IC50 (in general, the concentration that gives 50% inhibition) lay in the range of 40 to 120 nM.
As to `CC(C)C1=C2[C@H]3CC[C@@H]4[C@@]5(C)CC=C(C6=CCC(C(=O)O)CC6)C(C)(C)[C@@H]5CC[C@@]4(C)[C@]3(C)CC[C@@]2(NCCN(CCN(C)C)Cc2ccc(Cl)cc2)CC1=O` (stereo partly drawn) [Example 3, 4-((3aR,5aR,5bR,7aR,11aS,11bR,13aS)-3a-((2-((4-Chlorobenzyl)(2-(dimethylamino)ethyl)amino)ethyl)amino)-1-isopropyl-5a,5b,8,8,11a-pentamethyl-2-oxo-3,3a,4,5,5a,5b,6,7,7a,8,11,11a,11b,12,13,13a-hexadecahydro-2H-cyclopenta[a]chrysen-9-yl)cyclohex-3-enecarboxylic acid], the EC50 was determined as 11 nM in the test with HIV-1 NL4-3 wt and 42 nM in the test on HIV-1 V370A.
Turning to `C=C(C)[C@@H]1CC[C@]2(C(=O)O)CC[C@]3(C)[C@H](CC[C@@H]4[C@@]5(C)CC[C@H](OC(=O)CC(C)(C)C(=O)O)C(C)(C)[C@@H]5CC[C@]43C)[C@@H]12` [Bevirimat], the “mean reduction of HIV viral load” value in the test on HIV (patients with trough levels >=20 μg/mL and no key baseline Gag polymorphisms at Q369, V370 or T371) is recorded as 1.3 log10/mL. Moreover, the “viral load reduction versus patients without Gag polymorphisms” value in the test on HIV (users with Gag polymorphisms at Q369, V370 or T371) is “significantly lower load reductions”.
In the case of `CC(C)C1=C2[C@H]3CC[C@@H]4[C@@]5(C)CC=C(C6=CCC(C(=O)O)CC6)C(C)(C)[C@@H]5CC[C@@]4(C)[C@]3(C)CC[C@@]2(NCCN2CCC(S(C)(=O)=O)CC2)CC1=O` (stereo partly drawn) [Example 1, 4-((3aR,5aR,5bR,7aR,11aS,11bR,13aS)-1-Isopropyl-5a,5b,8,8,11a-pentamethyl-3a-((2-(4-(methylsulfonyl)piperidin-1-yl)ethyl)amino)-2-oxo-3,3a,4,5,5a,5b,6,7,7a,8,11,11a,11b,12,13,13a-hexadecahydro-2H-cyclopenta[a]chrysen-9-yl)cyclohex-3-enecarboxylic acid], the EC50 with HIV-1 NL4-3 wt was 99 nM; in the test on HIV-1 V370A, 352 nM.
In the case of `CC(C)C1=C2C3CCC4[C@@]5(C)CC=C(c6ccc(C(=O)O)cc6)C(C)(C)C5CC[C@@]4(C)[C@]3(C)CC[C@@]2(NC(=O)N(CCN(C)C)Cc2ccc(Cl)cc2)CC1=O` (stereo partly drawn) [Example 7, 4-((3aR,5aR,5bR,11aS)-3a-(3-(4-chlorobenzyl)-3-(2-(dimethylamino)ethyl)ureido)-1-isopropyl-5a,5b,8,8,11a-pentamethyl-2-oxo-3,3a,4,5,5a,5b,6,7,7a,8,11,11a,11b,12,13,13a-hexadecahydro-2H-cyclopenta[a]chrysen-9-yl)benzoic acid], the EC50 with HIV-1 NL4-3 wt turned out to be 6.3 nM.
With `CC(C)C1=C2C3CCC4[C@@]5(C)CC=C(c6ccc(C(=O)O)cc6)C(C)(C)C5CC[C@@]4(C)[C@]3(C)CC[C@@]2(NC(=O)CN(CCN(C)C)Cc2ccc(Cl)cc2)CC1=O` (stereo partly drawn) [Example 8, 4-((3aR,5aR,5bR,11aS)-3a-(2-((4-chlorobenzyl)(2-(dimethylamino)ethyl)amino)acetamido)-1-isopropyl-5a,5b,8,8,11a-pentamethyl-2-oxo-3,3a, 4,5,5a,5b,6,7,7a,8,11,11a,11b,12,13,13a-hexadecahydro-2H-cyclopenta[a]chrysen-9-yl)benzoic acid], the EC50 in the test on HIV-1 NL4-3 wt was 2 nM; in the test on HIV-1 V370A it was 8 nM.
With `CC(C)C1=C2[C@H]3CC[C@@H]4[C@@]5(C)CC=C(c6ccc(C(=O)O)cc6)C(C)(C)[C@@H]5CC[C@@]4(C)[C@]3(C)CC[C@@]2(NCCN(CCN(C)C)Cc2ccc(Cl)cc2)CC1=O` [Example 4, 4-((3aR,5aR,5bR,7aR,11aS,11bR,13aS)-3a-((2-((4-Chlorobenzyl)(2-(dimethylamino)ethyl)amino)ethyl)amino)-1-isopropyl-5a,5b,8,8,11a-pentamethyl-2-oxo-3,3a,4,5,5a,5b,6,7,7a,8,11,11a,11b,12,13,13a-hexadecahydro-2H-cyclopenta[a]chrysen-9-yl)benzoic acid hydrochloride salt], in the test on HIV-1 NL4-3 wt, the EC50 was 29 nM.
